Experimental data: patent publication US11110185B2, “Combination formulation” (GE Healthcare AS, priority 2015, dated 2021)

How the values were obtained:
[1] = In vitro relaxivity measurements (NMR relaxometer, 60 MHz, 37° C.); type: physicochemical
Procedure: In vitro relaxivity measurements were used to evaluate the efficacy (relaxivity) of the Combo formulations compared to the standalone commercial contrast agents. Longitudinal relaxation times were measured in 150 mM saline solution at 37° C. using a Minispec Mq benchtop NMR relaxometer (Bruker Instruments, Rheinstetten, Germany) operating at 60 MHz. The longitudinal relaxivity of the complexes were calculated by plotting the reciprocal of the T1 relaxation time versus the gadolinium concentration as determined via ICP-MS for each individual agent and the Combo formulations tested.

[2] = Contrast-enhanced MR imaging of dynamic vascular and delayed phases in minipigs; type: in vivo, Gottingen minipigs; details: for Peak Aorta SI: aorta ROI, 3.0 T, IV single injection 0.3 ml/kg; for percentage relative vascular intensity (1-RVI %), AP: arterial phase, 30 secs; for RVI AUC (total vascular enhancement: aorta, IVC, PV): composite RVI curves normalised to liver parenchyma, trapezoidal rule; for percentage relative vascular intensity (1-RVI %), LVP: late venous phase, 120 secs; for percentage relative vascular intensity (1-RVI %), PVP: portal venous phase, 60 secs
Procedure: The study was approved by the Universitair Ziekenhuis Brussel (UZB), Belgium local ethics committee for animal experiments on the 9 Mar. 2016 (EC number: 16-272-4). All animal experiments were carried out in accordance with the applicable laws and regulations. Naïve minipigs (Gottingen minipigs, Ellegaard Gottingen Minipigs, Denmark) were chosen as the model as its cardiac function and vascular dynamics closely resembles that of the human allowing optimal spatial and temporal resolution for the evaluation of the dynamic vascular phase.
The study consisted of five dosing groups (2 groups of contrast agent administered as single stand-alone dose; 3 groups administered with the Combo formulations). Each animal was tested once within each dosing group with a washout period of one week.
For each MRI examination, anaesthesia was induced with a bolus of the Zoletil mixture (0.06 ml/kg, intramuscular) and maintained by an infusion of Nesdonal (0.6 ml/kg/h, intravenously (IV) administered). Test items were administered IV as a single injection via PAC unit (Port-a-cath, Power PAC II, 1.9 mm, Smiths Medical, Belgium). The test items were administered at a volume of 0.3 ml/kg using a power injector (Medrad Spectris Solaris) at a rate of 2 ml/s. Immediately following administration, 20 ml saline was passed through the tubing to flush any remaining test item.
All MRI acquisitions were performed on a clinical 3.0 T GE MR750w scanner (GE Discovery, GE Healthcare, Waukesha, Wis.) using an abdominal phase-array surface coil positioned on the abdomen of the pigs. A multiphase dynamic 3D T1w LAVA (Liver Acquisition with Volume Acquisition) was performed using bolus timing to capture the early arterial to the late venous vascular phase using the following imaging parameters: TR/TE=2.9/1.3 ms, FA=12°, FoV=42×40 cm, matrix 220×160, slice thickness=3 mm, number of slices=40, NEX=1. The protocol also included a free-breathing navigated LAVA acquired at both pre and post administration of test item (during the delayed enhancement phase).
Quantitative analysis on the time-resolved dynamic series was completed using the Advantage Windows VolumeShare 7 Workstation (GE Healthcare). […] Visual verification of all ROI locations was performed by an abdominal radiologist. For each test item, absolute signal intensity (SI) curves were analysed for each of the ROIs and expressed as peak value with inter-quartile ranges of 25% and 75%.
To calculate the vascular enhancement, relative vascular intensity (RVI) was normalised to liver parenchyma for the aorta, IVC and PV using the equation below.
Relative Vascular Intensity (RVI)=(SI(Vessel)−SI(Liver))/(SI(Liver))
Using the RVI curves, composite vascular intensity curves were derived encompassing all vascular signal from the aorta, IVC and the PV. The total vascular enhancement associated with each test item was determined by the trapezoidal rule of area under the curve (AUC), where positive signal above y=0 was included. From this, time-relative fractions at the arterial phase (AP: 30 secs), portal venous phase (PVP: 60 secs) and late venous phase (LVP: 120 secs) were expressed as a proportion of the total vascular AUC (% RVI) and were calculated as 1-% RVI to give the percentage reduction though each phase.
For the delayed phase, a qualitative assessment was performed by an experienced radiologist for the presence or lack of enhancement pre and post-administration of test item.

[3] = normal liver, after intravenous injection; cited from earlier work

Relaxivity in aqueous solution (r1) [1]	Substance	peak arterial enhancement, SI (in words) ([2]; SI curves, aorta)	Peak Aorta SI [2]	percentage relative vascular intensity (1-RVI %), AP [2]	RVI AUC (total vascular enhancement: aorta, IVC, PV) [2]	percentage relative vascular intensity (1-RVI %), LVP [2]	percentage relative vascular intensity (1-RVI %), PVP [2]	hepatobiliary excretion [3]	vascular enhancement in LVP (in words) ([2]; 120 secs post injection)
2.9 mM⁻¹ s⁻¹	2-[4,7-his(carboxylatomethyl)-1 0-(carboxymethyl)-1,4, 7,10-tetrazacyclododec-1-yl]acetate; gadolinium(3+) [Gadoterate]	highest SI	2402	97.5%	63.2 AU	8.4%	42.8%		
4.7 mM⁻¹ s⁻¹	disodium; 2-[[2-[bis(carboxylatomethyl)amino]-3-(4-ethoxyphenyl)propyl]-[2-bis(carboxylatomethyl)amino]ethyl]amino]acetate, gadolinium(3+) [Gadoxetate]		2096	82.4%	34.2 AU	0.0%	19.0%	up to 50%	no vascular enhancement evident
